pIC50: −log10 of the molar value.
Molecular target: Wild-type human active MASTL (Homo sapiens (Human), UniProt Q96GX5)
Experiment: MASTL activity assay
Format: biochemical
Conditions: ATP 18 μM, biotin tagged 40-mer ENSA peptide 10 nM, 60 minutes at room temperature, HTRF/FRET readout
Protocol: Wild-type human active MASTL (154 pM) was incubated in assay buffer (50 mM HEPES, 100 mM NaCl, 0.1 mM EGTA, 10 mM MgCl2, 0.01% Tween-20, 0.5 mM TCEP, pH 7.5) with biotin tagged 40-mer ENSA peptide (10 nM), test compound and ATP (18 μM) for 60 minutes at room temperature. Test compounds were assayed using a 12-point dose range consisting of a 0, DMSO control and 10 sequential doses consisting from 0.0005, 0.002, 0.005, 0.014, 0.04, 0.12, 0.37, 1.11, 3.33 and 10 μM. The DMSO concentration was the same (1%) in all samples. An equal volume of detection buffer (assay buffer+267.5 pM Ab-K, 1.25 nM SA-D2, 20 mM EDTA and 400 mM KF) was added to stop the reaction to make a final volume of 20 μl, RT for 60 mins. Activity was measured using a plate reader (PerkinElmer EnSight) by the FRET signal generated between SA-D2 (streptavidin-D2) and Ab-K (anti-phospho-Serine 67 ENSA antibody (rabbit polyclonal, using standard techniques by a commercial supplier) conjugated to Cryptate). HTRF reagents (CisBio) were prepared as per the manufacturer recommendations. The 40-mer biotin-tagged ENSA peptide (synthesised by Bionics) used was based around Serine 67 on ENSA ([…]).

Sequence of Wild-type human active MASTL (Q96GX5 whole entry): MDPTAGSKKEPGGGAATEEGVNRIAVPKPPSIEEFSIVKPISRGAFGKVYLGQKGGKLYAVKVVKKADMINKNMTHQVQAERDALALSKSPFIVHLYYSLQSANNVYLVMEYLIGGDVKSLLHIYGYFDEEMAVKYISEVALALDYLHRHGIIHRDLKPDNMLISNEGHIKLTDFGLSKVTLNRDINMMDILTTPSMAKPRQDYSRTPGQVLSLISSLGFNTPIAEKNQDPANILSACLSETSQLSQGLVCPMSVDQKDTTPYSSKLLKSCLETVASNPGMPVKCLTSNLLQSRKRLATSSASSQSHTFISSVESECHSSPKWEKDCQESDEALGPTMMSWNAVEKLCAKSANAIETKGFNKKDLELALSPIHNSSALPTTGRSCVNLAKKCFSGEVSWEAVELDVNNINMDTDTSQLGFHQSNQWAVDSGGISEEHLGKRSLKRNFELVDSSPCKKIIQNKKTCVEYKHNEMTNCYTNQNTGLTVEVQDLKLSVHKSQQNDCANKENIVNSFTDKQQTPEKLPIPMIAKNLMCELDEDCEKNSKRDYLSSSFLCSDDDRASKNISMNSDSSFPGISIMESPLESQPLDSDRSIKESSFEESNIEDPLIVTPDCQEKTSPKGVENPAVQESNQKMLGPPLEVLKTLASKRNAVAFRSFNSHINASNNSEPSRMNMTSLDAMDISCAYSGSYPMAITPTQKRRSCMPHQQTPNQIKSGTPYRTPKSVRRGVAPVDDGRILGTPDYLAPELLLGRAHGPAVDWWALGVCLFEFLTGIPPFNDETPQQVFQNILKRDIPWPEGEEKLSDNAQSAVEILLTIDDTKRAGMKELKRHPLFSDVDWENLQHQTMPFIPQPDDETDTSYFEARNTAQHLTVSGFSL

Compound | pIC50
Cc1nc([C@H](Nc2nc(N)nc(-c3ccc4cnc(C)n4c3)n2)C(C)C)c[nH]1 (single isomer, unassigned) [Example 155A, 6-(3-methylimidazo[1,5-a]pyridin-6-yl)-N4-[(1S or 1R)-2-methyl-1-(2-methyl-1H-imidazol-4-yl)propyl]-1,3,5-triazine-2,4-diamine] | 6.00 to 6.30
CNc1nc(N[C@@H](c2ccn(C(F)F)n2)C(C)C)nc(-c2ccc3cnn(C)c3c2)n1 (single isomer, unassigned) [Example 29A, N4-[(1S or 1R)-1-[1-(difluoromethyl)pyrazol-3-yl]-2-methyl-propyl]-N2-(trideuteriomethyl)-6-[1-(trideuteriomethyl)indazol-6-yl]-1,3,5-triazine-2,4-diamine] | 6.30 to 9.00
CNc1nc(NC[C@H](O)c2cccc(Cl)c2Cl)cc(-c2ccc3cnc(C)n3c2)n1 (single isomer, unassigned) [Example 143A, (1R or 1S)-1-(2,3-dichlorophenyl)-2-[[2-(methylamino)-6-(3-methylimidazo[1,5-a]pyridin-6-yl)pyrimidin-4-yl]amino]ethanol] | 6.30 to 9.00
CNc1nc(N[C@H](c2c[nH]c(C(F)(F)F)n2)C(C)C)nc(-c2ccc3cnc(C)n3c2)n1 (single isomer, unassigned) [Example 149B, N2-methyl-6-(3-methylimidazo[1,5-a]pyridin-6-yl)-N4-[(1S or 1R)-2-methyl-1-[2-(trifluoromethyl)-1H-imidazol-4-yl]propyl]-1,3,5-triazine-2,4-diamine] | 6.30 to 9.00
CC[C@H](Nc1nc(N)nc(-c2ccc3cnc(C)n3c2)n1)c1ccc(F)nc1 (single isomer, unassigned) [Example 141B, N2-[(1R or 1S)-1-(6-fluoro-3-pyridyl)propyl]-6-(3-methylimidazo[1,5-a]pyridin-6-yl)-1,3,5-triazine-2,4-diamine] | 6.00 to 6.30
CNc1nc(N[C@@H](c2c[nH]c(C(F)(F)F)n2)C(C)C)nc(-c2ccc3cnc(C)n3c2)n1 (single isomer, unassigned) [Example 149A, N2-methyl-6-(3-methylimidazo[1,5-a]pyridin-6-yl)-N4-[(1S or 1R)-2-methyl-1-[2-(trifluoromethyl)-1H-imidazol-4-yl]propyl]-1,3,5-triazine-2,4-diamine] | 6.30 to 9.00
Cc1ncc2ccc(-c3nc(N)nc(NC(c4c[nH]c(C(F)(F)F)n4)C4CCCCC4)n3)cn12 (single isomer, unassigned) [Example 153A, N4-[(S or R)-cyclohexyl-[2-(trifluoromethyl)-1H-imidazol-4-yl]methyl]-6-(3-methylimidazo[1,5-a]pyridin-6-yl)-1,3,5-triazine-2,4-diamine] | 6.30 to 9.00
Cc1ncc2ccc(-c3nc(N)nc(N[C@@H](c4c[nH]c(C(F)(F)F)n4)C(C)C)n3)cn12 (single isomer, unassigned) [Example 142A, 6-(3-methylimidazo[1,5-a]pyridin-6-yl)-N2-[(1R or 1S)-2-methyl-1-[2-(trifluoromethyl)-1H-imidazol-4-yl]propyl]-1,3,5-triazine-2,4-diamine] | 6.30 to 9.00
CC(C)CC(Nc1nc(N)nc(-c2ccc3cnn(C)c3c2)n1)c1c[nH]c(C(F)(F)F)n1 (single isomer, unassigned) [Example 180B, 6-(1-methylindazol-6-yl)-N4-[(1R or 1S)-3-methyl-1-[2-(trifluoromethyl)-1H-imidazol-4-yl]butyl]-1,3,5-triazine-2,4-diamine] | 6.30 to 9.00
Cc1ncc2ccc(-c3nc(N)nc(N[C@@H](c4ccc(F)cn4)C(C)C)n3)cn12 (single isomer, unassigned) [Example 136A, N2-[(1R or 1S)-1-(5-fluoro-2-pyridyl)-2-methyl-propyl]-6-(3-methylimidazo[1,5-a]pyridin-6-yl)-1,3,5-triazine-2,4-diamine] | 6.30 to 9.00
Cc1ncc2ccc(-c3nc(N)nc(N[C@@H](CC(C)C)c4c[nH]c(C(F)(F)F)n4)n3)cn12 (single isomer, unassigned) [Example 152B, 6-(3-methylimidazo[1,5-a]pyridin-6-yl)-N4-[(1S or 1R)-3-methyl-1-[2-(trifluoromethyl)-1H-imidazol-4-yl]butyl]-1,3,5-triazine-2,4-diamine] | 6.30 to 9.00
CNc1nc(N[C@H](c2ccn(C(F)F)n2)C(C)C)nc(-c2ccc3cnn(C)c3c2)n1 (single isomer, unassigned) [Example 29B, N4-[(1S or 1R)-1-[1-(difluoromethyl)pyrazol-3-yl]-2-methyl-propyl]-N2-(trideuteriomethyl)-6-[1-(trideuteriomethyl)indazol-6-yl]-1,3,5-triazine-2,4-diamine] | < 6.00
Cc1ncc2ccc(-c3nc(N)nc(N[C@@H](CC4CC4)c4c[nH]c(C(F)(F)F)n4)n3)cn12 (single isomer, unassigned) [Example 7B, N4-[(1S or 1R)-2-cyclopropyl-1-[2-(trifluoromethyl)-1H-imidazol-4-yl]ethyl]-6-(3-methylimidazo[1,5-a]pyridin-6-yl)-1,3,5-triazine-2,4-diamine] | 6.30 to 9.00
Cc1ncc2ccc(-c3nc(N)nc(N[C@H](c4ccc(F)cn4)C(C)C)n3)cn12 (single isomer, unassigned) [Example 136B, N2-[(1R or 1S)-1-(5-fluoro-2-pyridyl)-2-methyl-propyl]-6-(3-methylimidazo[1,5-a]pyridin-6-yl)-1,3,5-triazine-2,4-diamine] | < 6.00
CNc1nc(NCC(O)c2cccc(Cl)c2Cl)cc(-c2ccc3cnc(C)n3c2)n1 (single isomer, unassigned) [Example 143B, (1R or 1S)-1-(2,3-dichlorophenyl)-2-[[2-(methylamino)-6-(3-methylimidazo[1,5-a]pyridin-6-yl)pyrimidin-4-yl]amino]ethanol] | < 6.00
CC(C)C(Nc1nc(N)nc(-c2ccc3c(cnn3C)c2)n1)c1ccn(C(F)F)n1 (single isomer, unassigned) [Example 47A, (R or S)—N2-(1-(1-(difluoromethyl)-1H-pyrazol-3-yl)-2-methylpropyl)-6-(1-methyl-1H-indazol-5-yl)-1,3,5-triazine-2,4-diamine] | 6.30 to 9.00
CC[C@@H](Nc1nc(N)nc(-c2ccc3cnc(C)n3c2)n1)c1ccc(F)nc1 (single isomer, unassigned) [Example 141A, N2-[(1R or 1S)-1-(6-fluoro-3-pyridyl)propyl]-6-(3-methylimidazo[1,5-a]pyridin-6-yl)-1,3,5-triazine-2,4-diamine] | 6.00 to 6.30
Cc1ncc2ccc(-c3nc(N)nc(N[C@H](CC4CC4)c4c[nH]c(C(F)(F)F)n4)n3)cn12 (single isomer, unassigned) [Example 7A, N4-[(1S or 1R)-2-cyclopropyl-1-[2-(trifluoromethyl)-1H-imidazol-4-yl]ethyl]-6-(3-methylimidazo[1,5-a]pyridin-6-yl)-1,3,5-triazine-2,4-diamine] | 6.30 to 9.00
Cc1ncc2ccc(-c3nc(N)nc(N[C@H](CC(C)C)c4c[nH]c(C(F)(F)F)n4)n3)cn12 (single isomer, unassigned) [Example 152A, 6-(3-methylimidazo[1,5-a]pyridin-6-yl)-N4-[(1S or 1R)-3-methyl-1-[2-(trifluoromethyl)-1H-imidazol-4-yl]butyl]-1,3,5-triazine-2,4-diamine] | 6.30 to 9.00
Cc1nc([C@@H](Nc2nc(N)nc(-c3ccc4cnc(C)n4c3)n2)C(C)C)c[nH]1 (single isomer, unassigned) [Example 155B, 6-(3-methylimidazo[1,5-a]pyridin-6-yl)-N4-[(1S or 1R)-2-methyl-1-(2-methyl-1H-imidazol-4-yl)propyl]-1,3,5-triazine-2,4-diamine] | 6.30 to 9.00
CC(C)CC(Nc1nc(N)nc(-c2ccc3cnn(C)c3c2)n1)c1c[nH]c(C(F)(F)F)n1 (single isomer, unassigned) [Example 180A, 6-(1-methylindazol-6-yl)-N4-[(1R or 1S)-3-methyl-1-[2-(trifluoromethyl)-1H-imidazol-4-yl]butyl]-1,3,5-triazine-2,4-diamine] | < 6.00
Cc1ncc2ccc(-c3nc(N)nc(NC[C@@H](O)c4cccc(Cl)c4Cl)n3)cn12 (single isomer, unassigned) [Example 146B, (1S or 1R)-[[4-amino-6-(3-methylimidazo[1,5-a]pyridin-6-yl)-1,3,5-triazin-2-yl]amino]-1-(2,3-dichlorophenyl) ethanol] | 6.30 to 9.00
Cc1ncc2ccc(-c3nc(N)nc(NC(c4c[nH]c(C(F)(F)F)n4)C4CCCCC4)n3)cn12 (single isomer, unassigned) [Example 153B, N4-[(S or R)-cyclohexyl-[2-(trifluoromethyl)-1H-imidazol-4-yl]methyl]-6-(3-methylimidazo[1,5-a]pyridin-6-yl)-1,3,5-triazine-2,4-diamine] | 6.30 to 9.00
Cc1ncc2ccc(-c3nc(N)nc(N[C@H](c4c[nH]c(C(F)(F)F)n4)C(C)C)n3)cn12 (single isomer, unassigned) [Example 142B, 6-(3-methylimidazo[1,5-a]pyridin-6-yl)-N2-[(1R or 1S)-2-methyl-1-[2-(trifluoromethyl)-1H-imidazol-4-yl]propyl]-1,3,5-triazine-2,4-diamine] | 6.30 to 9.00

Source: patent US20250352549A1, “SUBSTITUTED HETEROCYCLIC COMPOUND DERIVATIVES AND THEIR PHARMACEUTICAL USE” (AVELOS THERAPEUTICS INC., priority 0001, published 2025)
